The term melting point denotes the temperature, or range, at which the solid turns liquid.

The values below come from US20030224940A1, “Alpha-sulfin-and alpha-sulfonamino acid amide derivatives” (priority 2000, published 2003).

Where two headings read alike, the source gives them in different places.

Data set [1] deals with Phytophthora. Briefly: whole plant or invertebrate. Format: in vivo. As to conditions: in Solanum lycopersicum, read-out: inhibit fungal infestation.
The test system of data set [2] is Phytophthora. Put plainly: whole plant or invertebrate. Format: in vivo. The note with it: in Solanum tuberosum, read-out: inhibit fungal infestation.
In the next data set the test system is Plasmopara viticola. As to conditions: read-out: inhibit fungal infestation.

Experimental for Plasmopara viticola: D-1: Action Against Plasmopara viticola (downy mildew) on Vines
5 week old grape seedlings cv. Gutedel are treated with the formulated test compound in a spray chamber. One day after application grape plants are inoculated by spraying a sporangia suspension (4×10^4 sporangia/ml) on the lower leaf side of the test plants. After an incubation period of 6 days at +21° C. and 95% r. h. in a greenhouse the disease incidence is assessed.

The compound `CCS(=O)(=O)N[C@H](C(=O)NCc1ccc(O)c(OC)c1)C(C)C` displayed a melting point of 49 to 50 °C.
Compound `CCS(=O)(=O)N[C@H](C(=O)NCc1ccc(OCc2ccccc2)c(OC)c1)C(C)C` registered a melting point of 141 to 152 °C.
Compound `CCS(=O)(=O)N[C@H](C(=O)NCc1ccc(OCC#Cc2ccc(Cl)cc2)c(OC)c1)C(C)C` [Compound A1.1, (S)-N-{4-[3-(4-Chloro-phenyl)-prop-2-ynyloxy]-3-methoxy-benzyl}-2-ethanesulfonylamino-3-methyl-butyramide] displayed a melting point of 162 to 163 °C. Also, the inhibition at 200 ppm in the data set with Phytophthora [1] is ≥ 80%. Moreover, the inhibition at 200 ppm in the data set with Phytophthora [2] was ≥ 80%. In addition, the inhibition at 200 ppm in the data set on Plasmopara viticola is ≥ 80%.
